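1) Cells in 96-well plates. 2) Compound, 48 h, 5 concentrations. 3) Linear interpolation between surrounding doses. 4) Unreached endpoint = highest concentration. Here, GI50 denotes the concentration required for 50% inhibition of growth. TGI marks complete inhibition of growth.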
Columns and labels:
Assay in all cases: DTP human tumour cell line panel, 48 h
HOP-92 NSCLC = tested on: HOP-92 NSCLC
HL-60(TB) leukemia = tested on: HL-60(TB) leukemia
SF-295 CNS = tested on: SF-295 CNS
SNB-75 CNS = tested on: SNB-75 CNS
NCI/ADR-RES ovarian = tested on: NCI/ADR-RES ovarian
DU-145 prostate = tested on: DU-145 prostate
RPMI-8226 leukemia = tested on: RPMI-8226 leukemia
MOLT-4 leukemia = tested on: MOLT-4 leukemia
IGROV1 ovarian = tested on: IGROV1 ovarian
OVCAR-5 ovarian = tested on: OVCAR-5 ovarian

SMILES	TGI (HOP-92 NSCLC) [µM]	TGI (HL-60(TB) leukemia) [µM]	TGI (SF-295 CNS) [µM]	TGI (SNB-75 CNS) [µM]	TGI (NCI/ADR-RES ovarian) [µM]	TGI (DU-145 prostate) [µM]	TGI (RPMI-8226 leukemia) [µM]	TGI (MOLT-4 leukemia) [µM]	TGI (IGROV1 ovarian) [µM]	TGI (OVCAR-5 ovarian) [µM]	GI50 (HOP-92 NSCLC) [µM]	GI50 (HL-60(TB) leukemia) [µM]	GI50 (RPMI-8226 leukemia) [µM]	GI50 (MOLT-4 leukemia) [µM]	GI50 (IGROV1 ovarian) [µM]	GI50 (OVCAR-5 ovarian) [µM]	GI50 (SF-295 CNS) [µM]	GI50 (SNB-75 CNS) [µM]	GI50 (NCI/ADR-RES ovarian) [µM]	GI50 (DU-145 prostate) [µM]
CCN(CCN(CC)C(=O)NC)C(=O)NC	> 100	> 100	> 100	> 100	> 100	> 100	> 100	> 100	> 100	> 100	–	–	–	–	–	–	–	–	–	–
Cc1sc2nc3n(c(=O)c2c1C)N=C(c1ccccc1)CS3	> 100	> 100	> 100	> 100	> 100	> 100	> 100	> 100	> 100	> 100	–	–	–	–	–	–	–	–	–	–
COc1cccc(/C=N/NC(=O)CN(C)C)c1O	> 100	> 100	> 100	–	> 100	> 100	–	> 100	> 100	> 100	–	–	–	–	–	–	–	–	–	–
CCOC(=O)[C@H](CO)Nc1c(O)c2c(c(O)c1Cl)C(=O)C=CC2=O	> 10	> 10	> 10	> 10	> 10	> 10	> 10	> 10	> 10	> 10	–	–	–	–	–	–	–	–	–	–
COC(=O)[C@@H](NC(=O)c1ccc(CNC(=O)/C(C)=C/c2ccccc2)cc1)C(C)C	> 100	–	> 100	> 100	> 100	> 100	> 100	> 100	> 100	> 100	–	–	–	–	–	–	–	–	–	–
O=C(NCCCc1cn[nH]c(=O)n1)c1cccc2nc3ccccc3nc12	> 100	> 100	> 100	–	> 100	> 100	> 100	> 100	> 100	> 100	–	–	–	–	–	–	–	–	–	–
CN(C)C=Nc1c2c(nc3ccccc13)CCCC2	> 100	> 100	> 100	> 100	> 100	> 100	> 100	> 100	> 100	> 100	–	–	–	–	–	–	–	–	–	–
COc1cc(C2c3cc4c(cc3OC(NNc3ccccc3)C2C)OCO4)cc(OC)c1O (stereo not drawn)	24.5	5.18	11.3	7.56	11.1	17.5	9.78	11.2	24.6	18	–	–	–	–	–	–	–	–	–	–
CC(=O)CC12NC(=O)N(C)N=C1N(C)C(=O)N(C)C2=O (stereo not drawn)	> 100	> 100	> 100	> 100	> 100	> 100	> 100	> 100	> 100	> 100	–	–	–	–	–	–	–	–	–	–
CCOC(=O)[C@@]12NN=N[C@@H]1[C@H]1CO[C@H](c3ccccc3)N1C2=O	8.58	> 100	27.5	–	75.9	34.3	8.71	> 100	20.3	31.8	–	–	–	–	–	–	–	–	–	–
CCc1n[nH]c(=O)n1N=C(c1ccccc1)c1ccccc1	> 100	> 100	> 100	–	> 100	> 100	> 100	> 100	> 100	> 100	–	–	–	–	–	–	–	–	–	–
Cc1csc2c(=O)n(COCc3ccccc3)c(=O)[nH]c12	> 100	> 100	> 100	> 100	> 100	> 100	> 100	> 100	> 100	> 100	–	–	–	–	–	–	–	–	–	–
O=C(c1cccnc1)N1N=C(c2ccc3c(c2)OCO3)CC1(O)c1cc(F)c(Cl)cc1Cl (stereo not drawn)	68.9	52.2	59.4	39.8	50.4	59.8	> 100	> 100	34.1	49.4	–	–	–	–	–	–	–	–	–	–
Cc1cc2c(cc1-c1cc3c(cc1C)C(C(C)C)=C(O)C(=O)/C3=C\Nc1ccccn1)/C(=C/Nc1ccccn1)C(=O)C(O)=C2C(C)C	> 100	99.2	> 100	> 100	> 100	> 100	> 100	> 100	> 100	> 100	–	–	–	–	–	–	–	–	–	–
CC(=O)OC12OC(C)(C3C(=O)N(c4ccccc4)C(=O)C31)N(c1ccccc1)C2=O (stereo not drawn)	> 100	> 100	> 100	> 100	> 100	> 100	–	> 100	> 100	> 100	–	–	–	–	–	–	–	–	–	–
O=C1[C@H](O)[C@@H]2CCC[C@@]23CCCN13	> 100	> 100	> 100	> 100	> 100	> 100	> 100	> 100	> 100	> 100	–	–	–	–	–	–	–	–	–	–

SMILES	TGI (HOP-92 NSCLC) [µM]	TGI (HL-60(TB) leukemia) [µM]	TGI (SF-295 CNS) [µM]	TGI (SNB-75 CNS) [µM]	TGI (NCI/ADR-RES ovarian) [µM]	TGI (DU-145 prostate) [µM]	TGI (RPMI-8226 leukemia) [µM]	TGI (MOLT-4 leukemia) [µM]	TGI (IGROV1 ovarian) [µM]	TGI (OVCAR-5 ovarian) [µM]	GI50 (HOP-92 NSCLC) [µM]	GI50 (HL-60(TB) leukemia) [µM]	GI50 (RPMI-8226 leukemia) [µM]	GI50 (MOLT-4 leukemia) [µM]	GI50 (IGROV1 ovarian) [µM]	GI50 (OVCAR-5 ovarian) [µM]	GI50 (SF-295 CNS) [µM]	GI50 (SNB-75 CNS) [µM]	GI50 (NCI/ADR-RES ovarian) [µM]	GI50 (DU-145 prostate) [µM]
CN(C)C1(c2cc3ccccc3s2)CCCCC1	63.6	0.0658	> 100	> 100	> 100	> 100	–	> 100	> 100	> 100	–	–	–	–	–	–	–	–	–	–
C=CC(=C)CCC(Br)C(C)(C)Cl (stereo not drawn)	> 100	> 100	> 100	> 100	> 100	> 100	> 100	> 100	> 100	> 100	–	–	–	–	–	–	–	–	–	–
O=C1C(c2c(O)[nH]c3ccc(I)cc23)=Nc2ccccc21	12.4	> 100	> 64.4	17	> 100	> 100	> 100	> 100	9.24	57.1	–	–	–	–	–	–	–	–	–	–
COc1cc(/C=C/c2ccc(S(N)(=O)=O)cc2)cc(OC)c1	43.9	42.6	55.5	53.1	89.7	72.8	31.5	43.9	45.5	> 100	15	18.6	14.3	18.6	23.1	–	–	–	–	–
N#Cc1c(O)c(C=O)c(=O)n2c1[nH]c1ccccc12	> 100	–	> 100	> 100	> 100	> 100	> 100	> 100	> 100	> 100	–	–	–	–	–	–	–	–	–	–
O=C1CCc2ccccc2O1	> 100	> 100	> 100	> 100	> 100	> 100	> 100	> 100	> 100	> 100	–	–	–	–	–	–	–	–	–	–
CC(C)(CO)NC(=O)c1cccs1	> 100	> 100	> 100	–	> 100	> 100	> 100	> 100	> 100	> 100	–	–	–	–	–	–	–	–	–	–
CC1=C(C(=O)NCCCN(CCO)CCO)CC(C(=O)NCCCN(CCO)CCO)=C(C)N1	> 100	> 100	> 100	80	> 100	> 100	> 100	> 100	> 100	> 100	–	–	–	–	–	–	–	–	–	–
CCOC(=O)C(NC(=O)c1ccccc1)(Nc1ccc(S(=O)(=O)Nc2ccc(OC)nn2)cc1)C(F)(F)F (stereo not drawn)	> 100	> 100	> 100	> 100	> 100	> 100	> 100	> 100	> 100	> 100	–	–	–	–	–	–	–	–	–	–
Nc1nc(N)c2nc(CNc3ccc(C(=O)NC(CCNC(=O)c4ccccc4C(=O)O)C(=O)O)cc3)cnc2n1 (stereo not drawn)	> 100	> 100	> 100	> 100	> 100	> 100	> 100	> 100	> 100	> 100	> 100	–	0.0343	0.0453	0.0358	0.0863	–	–	–	–
CC1(C)OC2[C@@H](CO[C@@]3([C@H]4OC(C)(C)O[C@@H]4CO)OC(C)(C)O[C@@H]23)O1 (stereo partly drawn)	> 100	> 100	> 100	> 100	> 100	> 100	> 100	> 100	> 100	> 100	–	–	–	–	–	–	–	–	–	–
CCOC(=O)c1cc([N+](=O)[O-])cc([N+](=O)[O-])c1Sc1ncnc2nc[nH]c12	2.52	4.33	38.1	25.1	8.4	5.42	> 21.8	> 26.8	6.13	27.6	–	–	–	–	–	–	–	–	–	–
COC(=O)C1=C(C)NC2=C(C(=O)c3ccccc32)C1c1cn[nH]c1-c1ccccc1 (stereo not drawn)	> 100	> 100	> 100	> 100	> 100	> 100	> 100	> 100	> 100	> 100	–	–	–	–	–	–	–	–	–	–
O=c1cc(NNc2cccc(F)c2)[nH]c(=S)[nH]1	99.5	> 100	> 100	–	> 100	> 100	> 100	–	> 100	> 100	–	–	–	–	–	–	–	–	–	–
COc1c(C)c(C/C=C(\C)CCCCO)c(OC)c2ccccc12	80.4	–	> 100	> 100	> 100	> 100	> 100	43.1	> 100	> 100	–	–	–	–	–	–	–	–	–	–
COC1=CC(c2ccc[nH]2)=N/C1=C\c1[nH]c(C)c(C)c1CCC(=O)OCc1ccccc1	0.732	3.46	0.894	0.728	2.01	6.82	–	1.44	–	7.07	0.217	0.799	–	0.24	–	0.709	0.224	0.226	0.382	0.446

From PubChem BioAssay (NCI)
